Results on 19 compounds are retold here after BindingDB's records for doi:10.1074/jbc.M109.038984 (Spanish National Cancer Research Center (Cnio), 2009).

pIC50: −log10 of the molar value.

Sequence of Phosphatidylinositol 4,5-bisphosphate 3-kinase catalytic subunit beta isoform (P42338 whole entry, canonical isoform): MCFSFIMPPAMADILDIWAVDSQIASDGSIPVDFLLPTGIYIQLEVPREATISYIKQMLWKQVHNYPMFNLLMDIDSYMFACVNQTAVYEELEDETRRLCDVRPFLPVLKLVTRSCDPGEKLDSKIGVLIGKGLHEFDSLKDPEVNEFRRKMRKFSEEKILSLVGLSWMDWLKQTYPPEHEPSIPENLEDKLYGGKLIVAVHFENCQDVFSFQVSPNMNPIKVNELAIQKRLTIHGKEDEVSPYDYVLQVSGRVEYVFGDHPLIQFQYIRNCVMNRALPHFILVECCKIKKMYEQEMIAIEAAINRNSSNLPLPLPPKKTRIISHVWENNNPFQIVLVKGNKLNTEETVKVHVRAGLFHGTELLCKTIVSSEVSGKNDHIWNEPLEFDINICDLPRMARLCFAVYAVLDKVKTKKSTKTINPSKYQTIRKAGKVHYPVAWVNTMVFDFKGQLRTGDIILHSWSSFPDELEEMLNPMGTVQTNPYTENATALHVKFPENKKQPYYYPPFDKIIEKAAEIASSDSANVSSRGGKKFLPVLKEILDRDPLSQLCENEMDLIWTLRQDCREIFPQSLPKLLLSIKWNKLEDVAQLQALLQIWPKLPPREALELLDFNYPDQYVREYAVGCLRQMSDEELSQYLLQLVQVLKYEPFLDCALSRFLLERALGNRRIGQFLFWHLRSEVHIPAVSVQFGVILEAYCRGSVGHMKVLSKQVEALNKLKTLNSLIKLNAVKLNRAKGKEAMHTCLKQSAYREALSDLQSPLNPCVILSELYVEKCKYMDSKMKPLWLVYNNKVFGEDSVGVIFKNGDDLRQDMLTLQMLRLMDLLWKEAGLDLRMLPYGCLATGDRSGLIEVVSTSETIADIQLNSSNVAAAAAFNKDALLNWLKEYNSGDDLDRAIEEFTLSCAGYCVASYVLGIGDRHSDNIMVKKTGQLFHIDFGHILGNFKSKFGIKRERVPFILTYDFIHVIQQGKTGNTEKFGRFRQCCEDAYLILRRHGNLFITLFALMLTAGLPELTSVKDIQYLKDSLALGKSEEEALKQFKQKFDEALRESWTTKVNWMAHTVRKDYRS

One test addresses Phosphatidylinositol 4,5-bisphosphate 3-kinase catalytic subunit beta isoform (Homo sapiens, UniProt P42338). The test can be described thus: Kinase Assay. From the text: (§1) Kinase assay using PI3K.
The compound `Cn1ncc2c(N3CCOCC3)nc(-c3cccc(O)c3)nc21` [ETP-45658, 13] had a negative logarithm of the IC50 (pIC50) of 6.89.

The target of another test is T1, Phosphatidylinositol 4,5-bisphosphate 3-kinase catalytic subunit delta isoform (Homo sapiens, UniProt O00329).
T1 sequence (O00329 whole entry): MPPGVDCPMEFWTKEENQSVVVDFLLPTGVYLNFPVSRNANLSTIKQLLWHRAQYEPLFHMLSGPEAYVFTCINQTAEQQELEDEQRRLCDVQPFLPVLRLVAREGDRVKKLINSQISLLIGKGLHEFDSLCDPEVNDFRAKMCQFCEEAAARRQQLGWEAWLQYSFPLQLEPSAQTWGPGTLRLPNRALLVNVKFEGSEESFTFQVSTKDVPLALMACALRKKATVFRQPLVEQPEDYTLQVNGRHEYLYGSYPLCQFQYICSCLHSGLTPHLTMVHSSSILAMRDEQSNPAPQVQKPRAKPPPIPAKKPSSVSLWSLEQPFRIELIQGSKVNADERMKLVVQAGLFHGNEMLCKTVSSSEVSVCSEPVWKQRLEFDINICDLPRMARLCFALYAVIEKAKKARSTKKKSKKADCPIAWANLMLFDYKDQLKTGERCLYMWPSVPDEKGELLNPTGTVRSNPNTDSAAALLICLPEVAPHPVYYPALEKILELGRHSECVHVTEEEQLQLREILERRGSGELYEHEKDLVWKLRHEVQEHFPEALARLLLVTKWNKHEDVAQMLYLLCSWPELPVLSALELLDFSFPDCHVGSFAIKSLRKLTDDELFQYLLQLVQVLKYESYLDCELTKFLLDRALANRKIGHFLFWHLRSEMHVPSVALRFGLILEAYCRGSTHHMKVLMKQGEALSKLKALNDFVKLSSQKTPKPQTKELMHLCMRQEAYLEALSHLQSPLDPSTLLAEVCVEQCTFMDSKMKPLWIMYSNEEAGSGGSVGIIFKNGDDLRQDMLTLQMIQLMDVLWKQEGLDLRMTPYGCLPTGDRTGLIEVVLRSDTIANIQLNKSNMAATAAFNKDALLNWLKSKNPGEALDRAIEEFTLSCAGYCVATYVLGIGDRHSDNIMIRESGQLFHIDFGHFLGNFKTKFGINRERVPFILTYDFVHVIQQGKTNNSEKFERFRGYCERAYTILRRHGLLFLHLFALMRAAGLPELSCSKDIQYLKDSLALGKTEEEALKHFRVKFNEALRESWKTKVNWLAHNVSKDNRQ
The test can be described thus: Kinase Assay.
Source text: as §1
With `Cn1ncc2c(N3CCOCC3)nc(-c3cccc(O)c3)nc21` [ETP-45658, 13], the negative logarithm of the IC50 (pIC50) is 7.52.

The target in the next test is Phosphatidylinositol 4,5-bisphosphate 3-kinase catalytic subunit alpha isoform (Homo sapiens, UniProt P42336). The test can be described thus: Kinase Assay.
Sequence of Phosphatidylinositol 4,5-bisphosphate 3-kinase catalytic subunit alpha isoform (P42336 whole entry, canonical isoform): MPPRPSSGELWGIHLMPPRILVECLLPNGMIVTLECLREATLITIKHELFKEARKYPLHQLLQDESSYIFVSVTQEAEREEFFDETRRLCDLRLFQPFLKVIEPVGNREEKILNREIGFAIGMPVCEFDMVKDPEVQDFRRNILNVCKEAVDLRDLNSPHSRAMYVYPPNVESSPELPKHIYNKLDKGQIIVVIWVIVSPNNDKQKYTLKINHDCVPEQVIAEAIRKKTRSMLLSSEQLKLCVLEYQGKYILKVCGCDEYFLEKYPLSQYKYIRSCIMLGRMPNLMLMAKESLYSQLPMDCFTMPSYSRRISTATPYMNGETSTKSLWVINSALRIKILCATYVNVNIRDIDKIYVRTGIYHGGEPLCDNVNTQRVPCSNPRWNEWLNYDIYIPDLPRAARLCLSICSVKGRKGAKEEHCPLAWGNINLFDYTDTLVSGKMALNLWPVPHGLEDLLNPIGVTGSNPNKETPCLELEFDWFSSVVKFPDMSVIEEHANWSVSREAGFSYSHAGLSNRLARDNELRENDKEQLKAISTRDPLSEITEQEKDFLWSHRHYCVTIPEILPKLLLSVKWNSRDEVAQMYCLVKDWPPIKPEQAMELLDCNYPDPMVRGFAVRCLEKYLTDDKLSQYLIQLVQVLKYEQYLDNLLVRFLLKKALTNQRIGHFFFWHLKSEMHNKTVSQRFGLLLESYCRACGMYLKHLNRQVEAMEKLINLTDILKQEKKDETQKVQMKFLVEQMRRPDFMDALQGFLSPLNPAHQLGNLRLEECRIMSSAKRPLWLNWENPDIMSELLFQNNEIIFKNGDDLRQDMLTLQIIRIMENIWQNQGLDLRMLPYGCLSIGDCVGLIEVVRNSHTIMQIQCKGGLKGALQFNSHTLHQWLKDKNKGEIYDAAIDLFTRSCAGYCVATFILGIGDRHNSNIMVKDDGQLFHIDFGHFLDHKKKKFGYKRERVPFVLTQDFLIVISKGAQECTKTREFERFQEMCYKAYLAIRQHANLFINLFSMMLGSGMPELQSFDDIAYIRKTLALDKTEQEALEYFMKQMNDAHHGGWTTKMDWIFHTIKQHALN
Source text: as §1
The compound `COc1cccc(Nc2nc(N3CCOCC3)nc3c2cnn3C)c1` gave a pIC50 of 6.40.
On the same count and under the same terms, the value for `CN1CCN(c2nc(Nc3cccc(Cl)c3)c3cnn(C)c3n2)CC1` [ETP-5935] was 5.31.
Same read-out and setting: as for `CC1CN(c2nc(Nc3ccccc3)c3cnn(C)c3n2)CC(C)O1` (stereo unspecified) [ETP-6531], the figure is 4.90; as for `COc1cccc(Nc2nc(N3CCN(C)CC3)nc3c2cnn3C)c1` [ETP-7146], 5.04; as for `COc1cccc(Nc2nc(N3CCN(CCO)CC3)nc3c2cnn3C)c1` [ETP-8162], 4.90.
Still for that read-out and setting: as for `Cn1ncc2c(OCc3ccccc3)nc(N3CCOCC3)nc21` [ETP-45415, 3a], the figure is 4.45.
As to `Cn1ncc2c(NCc3ccccc3)nc(N3CCOCC3)nc21` [ETP-45416, 3b], the pIC50 was 4.43.
On the same count and under the same terms, as for `Cn1ncc2c(Oc3ccc(Cl)cc3)nc(N3CCOCC3)nc21` [ETP-45419, 3d], the figure is 5.26; as for `Cn1ncc2c(SCc3ccccc3)nc(N3CCOCC3)nc21` [ETP-45654, 3c], below 4.30.
Still for that read-out and setting: as for `Cn1ncc2c(=O)[nH]c(N3CCOCC3)nc21` [ETP-45700, 6], the figure is below 4.30; as for `CC(C)Oc1nc(N2CCOCC2)nc2c1cnn2C` [ETP-45797, 7], 4.79; as for `Cn1ncc2c(-c3cccc(O)c3)nc(N3CCOCC3)nc21` [ETP-45798, 9], 6.94.
Still for that read-out and setting: as for `Cn1ncc2c(-c3cccc(NS(C)(=O)=O)c3)nc(N3CCOCC3)nc21` [ETP-45799, 10], the figure is 5.78; as for `COC(=O)c1cccc(-c2nc(N3CCOCC3)c3cnn(C)c3n2)c1` [ETP-45867, 14], 6.08; as for `COc1cccc(-c2nc(N3CCOCC3)c3cnn(C)c3n2)c1` [ETP-45871, 15], 5.24.
`Cc1cccc(Oc2nc(N3CCOCC3)nc3c2cnn3C)c1` [ETP-45874, 11]: the negative-log IC50 (pIC50) was 6.01.
On the same count and under the same terms, the value for `CSc1cccc(-c2nc(N3CCOCC3)c3cnn(C)c3n2)c1` [ETP-45875, 16] was 5.45; that for `CC(=O)Nc1cccc(-c2nc(N3CCOCC3)c3cnn(C)c3n2)c1` [ETP-45876, 17] was 5.15.

For a further test, the target named is Phosphatidylinositol 4,5-bisphosphate 3-kinase catalytic subunit gamma isoform (Homo sapiens, UniProt P48736). The test can be described thus: Kinase Assay.
Sequence of Phosphatidylinositol 4,5-bisphosphate 3-kinase catalytic subunit gamma isoform (P48736 whole entry, canonical isoform): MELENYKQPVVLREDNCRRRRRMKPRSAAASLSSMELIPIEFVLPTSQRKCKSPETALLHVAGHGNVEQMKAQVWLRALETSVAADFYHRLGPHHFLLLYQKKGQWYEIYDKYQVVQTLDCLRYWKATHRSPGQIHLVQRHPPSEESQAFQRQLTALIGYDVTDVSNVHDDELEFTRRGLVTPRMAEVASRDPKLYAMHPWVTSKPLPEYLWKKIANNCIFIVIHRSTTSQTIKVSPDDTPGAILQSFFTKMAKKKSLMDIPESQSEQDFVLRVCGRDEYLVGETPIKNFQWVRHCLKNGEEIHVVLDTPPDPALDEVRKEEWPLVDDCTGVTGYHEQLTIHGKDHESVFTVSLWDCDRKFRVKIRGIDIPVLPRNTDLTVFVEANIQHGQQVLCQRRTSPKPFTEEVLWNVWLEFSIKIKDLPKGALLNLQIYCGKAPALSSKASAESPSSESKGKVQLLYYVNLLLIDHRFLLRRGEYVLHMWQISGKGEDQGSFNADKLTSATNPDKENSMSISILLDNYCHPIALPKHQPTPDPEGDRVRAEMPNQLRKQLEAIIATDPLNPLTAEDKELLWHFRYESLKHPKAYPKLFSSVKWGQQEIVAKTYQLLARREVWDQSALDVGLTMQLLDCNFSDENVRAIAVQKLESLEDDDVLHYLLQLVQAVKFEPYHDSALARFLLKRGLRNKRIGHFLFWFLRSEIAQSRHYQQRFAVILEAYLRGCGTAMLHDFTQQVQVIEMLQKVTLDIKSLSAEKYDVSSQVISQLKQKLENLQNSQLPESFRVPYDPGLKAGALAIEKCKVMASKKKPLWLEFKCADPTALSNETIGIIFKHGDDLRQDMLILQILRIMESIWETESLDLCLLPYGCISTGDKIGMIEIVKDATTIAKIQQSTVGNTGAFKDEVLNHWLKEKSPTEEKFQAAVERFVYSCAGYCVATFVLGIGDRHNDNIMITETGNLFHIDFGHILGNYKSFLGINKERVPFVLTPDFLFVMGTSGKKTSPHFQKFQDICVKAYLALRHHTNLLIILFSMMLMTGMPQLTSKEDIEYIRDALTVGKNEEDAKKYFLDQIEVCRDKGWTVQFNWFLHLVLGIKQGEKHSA
Source text: as §1
Consider `Cn1ncc2c(N3CCOCC3)nc(-c3cccc(O)c3)nc21` [ETP-45658, 13], for which the negative-log IC50 (pIC50) was 6.14.
